Experiment in all cases: NCI 5-dose assay
Holding throughout (assay type): cell-based

One experiment concerns NCI-H23. The following applies: Homo sapiens; NCI-H23, Non-small cell lung cancer. How it is done:
(§1) The synthesized dichlorobenzimidazoles 10a–p were assayed for their influence on divers cancer cell lines according to the method presented in the Additional file A.
(§2) 5. Screening of cytotoxic activity against a panel of sixty human tumor cell lines
(§3) The selected compounds by NCI were evaluated for their anticancer activity in a two-stage process. First, these compounds were screened against the full NCI 60 cell lines panel at a single high dose of 10 µM. Then, the output from the single dose screen is reported as a mean graph. […]
(§4) at five different minimal concentrations.
(§5) Assay protocol. The human tumor cell lines of the cancer screening panel are grown in RPMI 1640 medium containing 5% fetal bovine serum and 2 mM L-glutamine. For a typical screening experiment, cells are inoculated into 96 well microtiter plates in 100 µL at plating densities ranging from 5000 to 40,000 cells/well depending on the doubling time of individual cell lines. After cell inoculation, the microtiter plates are incubated at 37 °C, 5% CO 2, 95% air and 100% relative humidity for 24 h prior to addition of the experimental drugs.
(§6) After 24 h, two plates of each cell line are fixed in situ with TCA, to represent a measurement of the cell population for each cell line at the time of drug addition (Tz). The experimental drugs are solubilized in dimethyl sulfoxide at 400-fold the desired final maximum test concentration and stored frozen prior to use. At the time of drug addition, an aliquot of frozen concentrate is thawed and diluted to twice the desired final maximum test concentration with complete medium containing 50 µg/mL gentamicin. Additional four, 10-fold or ½ log serial dilutions are made to provide a total of five drug concentrations plus control.
(§7) Aliquots of […] of these different drug dilutions are added to the appropriate microtiter wells already containing […] of medium, resulting in the required final drug concentrations.
(§8) Following drug addition, the plates are incubated for an additional 48 h at 37 °C, 5% CO 2, 95% air, and 100% relative humidity. For adherent cells, the assay is terminated by the addition of cold TCA.
(§9) Cells are fixed in situ by the gentle addition of 50 µL of cold 50% (w/v) TCA (final concentration, 10% TCA) and incubated for 60 min at 4 °C. The supernatant is discarded, and the plates are washed five times with tap water and air dried. Sulforhodamine B (SRB) solution ([…]) at 0.4% (w/v) in 1% acetic acid is added to each well, and plates are incubated for 10 min at room temperature. After staining, unbound dye is removed by washing five times with 1% acetic acid and the plates are air dried. Bound stain is subsequently solubilized with 10 mM trizma base, and the absorbance is read on an automated plate reader at a wavelength of 515 nm. For suspension cells, the methodology is […]
(§10) the same except that the assay is terminated by fixing settled cells at the bottom of the wells by gently adding 50 µl of 80% TCA (final concentration, 16% TCA). Using the seven absorbance measurements [time zero, (Tz), control growth, (C), and test growth in the presence of drug at the five concentration levels (Ti)], the percentage growth is calculated at each of the drug concentrations […]
(§11) Percentage growth inhibition is calculated as: [(Ti Tz)/(C–Tz)] x 100 for concentrations for which Ti>/=Tz and [(Ti-Tz)/Tz] x 100 for concentrations for which Ti < Tz.
(§12) Three dose response parameters are calculated for each experimental agent. Growth […]
(§13) concentration resulting in a 50% reduction in the net protein increase (as measured by SRB staining) in control cells during the drug incubation. The drug concentration resulting in total growth inhibition (TGI) is calculated from Ti = Tz. […]
(§14) reduction in the measured protein at the end of the drug treatment as compared to that at the beginning) indicating a net loss of cells following treatment is calculated from [(Ti–Tz)/Tz] x 100 =
(§15) _50. Values are calculated for each of these three parameters if the level of activity is reached; […]

In a further experiment the test system is HL-60(TB). The following applies: Homo sapiens, Leukemia. How it is done: as §1, §2, §3, §4, §5, §6, §7, §8, §9, §10, §11, §12, §13, §14, §15
The subject of another experiment is MDA-MB-231/ATCC. The following applies: Homo sapiens, Breast cancer. How it is done:
as §1, §2, §3, §4, §5, §6, §7, §8, §9, §10, §11, §12, §13, §14, §15

A further experiment relates to UACC-257. The following applies: Homo sapiens; UACC-257, Melanoma. How it is done:
as §1, §2, §3, §4, §5, §6, §7, §8, §9, §10, §11, §12, §13, §14, §15

In a further experiment the test system is SK-MEL-2. The following applies: Homo sapiens; SK-MEL-2, Melanoma. Here is the method: as §1, §2, §3, §4, §5, §6, §7, §8, §9, §10, §11, §12, §13, §14, §15
In another experiment the test system is PC-3. The following applies: Homo sapiens; PC-3, Prostate cancer. Here is the method:
as §1, §2, §3, §4, §5, §6, §7, §8, §9, §10, §11, §12, §13, §14, §15

In a further experiment the test system is DU-145. The following applies: Homo sapiens; DU-145, Prostate cancer. How it is done:
as §1, §2, §3, §4, §5, §6, §7, §8, §9, §10, §11, §12, §13, §14, §15

Another experiment has as its system 786-0. The following applies: Homo sapiens; 786-0, Renal cancer. Here is the method: as §1, §2, §3, §4, §5, §6, §7, §8, §9, §10, §11, §12, §13, §14, §15
Another experiment has as its system SK-MEL-5. The following applies: Homo sapiens; SK-MEL-5, Melanoma. Here is the method: as §1, §2, §3, §4, §5, §6, §7, §8, §9, §10, §11, §12, §13, §14, §15
For the next experiment, the system named is OVCAR-5. The following applies: Homo sapiens; OVCAR-5, Ovarian cancer. Here is the method:
as §1, §2, §3, §4, §5, §6, §7, §8, §9, §10, §11, §12, §13, §14, §15

A further experiment concerns UACC-62. The following applies: Homo sapiens; UACC-62, Melanoma. Here is the method: as §1, §2, §3, §4, §5, §6, §7, §8, §9, §10, §11, §12, §13, §14, §15
A further experiment concerns HOP-92. The following applies: Homo sapiens; HOP-92, Non-small cell lung cancer. Here is the method:
as §1, §2, §3, §4, §5, §6, §7, §8, §9, §10, §11, §12, §13, §14, §15

The next experiment deals with NCI-H522. The following applies: Homo sapiens; NCI-H522, Non-small cell lung cancer. How it is done:
as §1, §2, §3, §4, §5, §6, §7, §8, §9, §10, §11, §12, §13, §14, §15

For another experiment, the system named is K-562. The following applies: Homo sapiens, K562; K-562, Leukemia. Here is the method:
as §1, §2, §3, §4, §5, §6, §7, §8, §9, §10, §11, §12, §13, §14, §15

For another experiment, the system named is SF-295. The following applies: Homo sapiens; SF-295, CNS cancer. How it is done:
as §1, §2, §3, §4, §5, §6, §7, §8, §9, §10, §11, §12, §13, §14, §15

A further experiment deals with NCI-H460. The following applies: Homo sapiens; NCI-H460, Non-small cell lung cancer. How it is done: as §1, §2, §3, §4, §5, §6, §7, §8, §9, §10, §11, §12, §13, §14, §15
For a further experiment, the system named is NCI/ADR-RES. The following applies: Homo sapiens, Ovarian cancer. Here is the method:
as §1, §2, §3, §4, §5, §6, §7, §8, §9, §10, §11, §12, §13, §14, §15

For the next experiment, the system named is RXF 393. The following applies: Homo sapiens; RXF 393, Renal cancer. Here is the method:
as §1, §2, §3, §4, §5, §6, §7, §8, §9, §10, §11, §12, §13, §14, §15

The test system of a further experiment is EKVX. The following applies: Homo sapiens, Non-small cell lung cancer. Here is the method:
as §1, §2, §3, §4, §5, §6, §7, §8, §9, §10, §11, §12, §13, §14, §15

The subject of another experiment is HCT-116. The following applies: Homo sapiens; HCT-116, Colon cancer. Here is the method:
as §1, §2, §3, §4, §5, §6, §7, §8, §9, §10, §11, §12, §13, §14, §15

A further experiment concerns HCC-2998. The following applies: Homo sapiens; HCC-2998, Colon cancer. Here is the method: as §1, §2, §3, §4, §5, §6, §7, §8, §9, §10, §11, §12, §13, §14, §15
Another experiment deals with MDA-MB-468. The following applies: Homo sapiens; MDA-MB-468, Breast cancer. How it is done:
as §1, §2, §3, §4, §5, §6, §7, §8, §9, §10, §11, §12, §13, §14, §15

The structures appear in SMILES notation.

Turning to `COC(=O)COc1ccc(C=NNC(=O)Cn2c(-c3ccc(OC)cc3)nc3cc(Cl)c(Cl)cc32)cc1` [Compound 10h, Methyl-2-(4-((2-(2-(5,6-dichloro-2-(4-methoxyphenyl)-1H-benzo[d]imidazol-1-yl)acetyl)hydrazono)methyl)phenoxy)acetate], the GI50 in the experiment with NCI-H23 was > 82.5 µM; with HL-60(TB), > 82.5 µM; with MDA-MB-231/ATCC, 6.66 µM; in the experiment on UACC-257, 12.7 µM; in the experiment with SK-MEL-2, 10.5 µM; in the experiment with PC-3 it was 4.45 µM. In addition, the GI50 in the experiment with DU-145 stood at 1.67 µM; with 786-0, 3.01 µM; in the experiment on SK-MEL-5, 80.9 µM; in the experiment on OVCAR-5, 34.3 µM; in the experiment on UACC-62 it was 10.1 µM; in the experiment with HOP-92, 11.4 µM. Besides, the GI50 in the experiment with NCI-H522 was 14.7 µM; in the experiment on K-562, 11.3 µM; in the experiment on SF-295 it was > 82.5 µM; with NCI-H460 it was > 82.5 µM; in the experiment on NCI/ADR-RES it was 5.22 µM; in the experiment on RXF 393, 2.85 µM. The GI50 was determined as 18.8 µM with EKVX, 68 µM in the experiment with HCT-116, 13.1 µM in the experiment with HCC-2998 and 1.68 µM with MDA-MB-468.
Turning to `COC(=O)COc1cc(C=NNC(=O)Cn2c(-c3ccc(OC)cc3)nc3cc(Cl)c(Cl)cc32)ccc1OC` [Compound 10o, Methyl-2-(5-((2-(2-(5,6-dichloro-2-(4-methoxyphenyl)-1H-benzo[d]imidazol-1-yl)acetyl)hydrazono)methyl)-2-methoxyphenoxy)acetate], the GI50 in the experiment on NCI-H23 was > 100 µM; in the experiment on HL-60(TB), > 100 µM; in the experiment with MDA-MB-231/ATCC, 16.1 µM; in the experiment on UACC-257, 38.7 µM; with SK-MEL-2 it was 21.6 µM; with PC-3, 17.2 µM. The GI50 with DU-145 is 4.79 µM; with 786-0, 17.9 µM; with SK-MEL-5, > 100 µM; with OVCAR-5, > 100 µM; with UACC-62, 14.5 µM; in the experiment with HOP-92 it was 23.6 µM. Besides, the GI50 was > 100 µM in the experiment with NCI-H522; > 100 µM in the experiment with K-562; > 100 µM with SF-295; > 100 µM in the experiment on NCI-H460; 81.2 µM in the experiment with NCI/ADR-RES; 11 µM with RXF 393. Moreover, the GI50 with EKVX was 89.2 µM; in the experiment on HCT-116, > 100 µM; in the experiment on HCC-2998 it was 13.4 µM; with MDA-MB-468, 4.4 µM.
For `COC(=O)COc1ccc(C=NNC(=O)Cn2c(-c3ccc(OC)cc3)nc3cc(Cl)c(Cl)cc32)cc1OC` [Compound 10p, Methyl-2-(4-((2-(2-(5,6-dichloro-2-(4-methoxyphenyl)-1H-benzo[d]imidazol-1-yl)acetyl)hydrazono)methyl)-2-methoxyphenoxy)acetate], the 50% growth inhibitory concentration (GI50) was > 72.5 µM in the experiment on NCI-H23; > 72.5 µM in the experiment on HL-60(TB); 13.8 µM in the experiment with MDA-MB-231/ATCC; 14.7 µM with UACC-257; 10 µM with SK-MEL-2; 4.38 µM with PC-3. For the same compound, the GI50 in the experiment with DU-145 is 1.9 µM; in the experiment on 786-0, 2.21 µM; in the experiment with SK-MEL-5, > 72.5 µM; in the experiment with OVCAR-5 it was 24 µM; with UACC-62, 6.52 µM; in the experiment on HOP-92, 12.5 µM. Moreover, the GI50 was > 72.5 µM in the experiment on NCI-H522; > 72.5 µM in the experiment with K-562; > 72.5 µM in the experiment on SF-295; 26.1 µM in the experiment on NCI-H460; 3.05 µM in the experiment with NCI/ADR-RES; 1.43 µM with RXF 393. Also, the GI50 was 18.9 µM with EKVX, > 72.5 µM with HCT-116, 11.7 µM in the experiment on HCC-2998 and 1.48 µM with MDA-MB-468.

Source of the values: PMC11844072, “Novel 5,6-dichlorobenzimidazole derivatives as dual BRAFWT and BRAFV600E inhibitors: design, synthesis, anti-cancer activity and molecular dynamics simulations” (BMC Chemistry, 2025).
